Each block holds one compound with its values, some of them ahead of it.
How the values were obtained:
Conditions in all cases: treatment: drug alone; 5 days
SN12C [1] = test: GI50, drug alone; higher = less potent
Description: (§1)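 Primary HTS: 8 RCC cell lines treated with 8 doses (up to 10 uM) of each library drug alone for 5 days; viability read by CellTiter-Glo and normalised to DMSO. GI50 was fitted with XLfit (4-parameter), AUC is the area under the dose-response curve, and minimum viability is the lowest fraction of DMSO viability across doses.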

769-P [2] = test: GI50, drug alone; higher = less potent
Description: as §1

TK-10 [3] = test: GI50, drug alone; higher = less potent
Description: as §1

ACHN [4] = test: GI50, drug alone; higher = less potent
Description: as §1

786-O [5] = test: GI50, drug alone; higher = less potent
Description: as §1

UO-31 [6] = test: GI50, drug alone; higher = less potent
Description: as §1

CAKI-1 [7] = test: GI50, drug alone; higher = less potent
Description: as §1

A498 [8] = test: GI50, drug alone; higher = less potent
Description: as §1

SN12C [9] = test: minimum viability across doses, drug alone, relative to DMSO (fraction); higher = less growth inhibition
Description: as §1

769-P [10] = test: as above
Description: as §1

TK-10 [11] = test: as above
Description: as §1

ACHN [12] = test: as above
Description: as §1

786-O [13] = test: as above
Description: as §1

UO-31 [14] = test: as above
Description: as §1

CAKI-1 [15] = test: as above
Description: as §1

A498 [16] = test: as above
Description: as §1

SN12C [17] = test: AUC of dose-response viability curve, drug alone (arbitrary (AUC of normalised viability)); higher = less growth inhibition
Description: as §1

769-P [18] = test: as above
Description: as §1

TK-10 [19] = test: as above
Description: as §1

ACHN [20] = test: as above
Description: as §1

786-O [21] = test: as above
Description: as §1

UO-31 [22] = test: as above
Description: as §1

CAKI-1 [23] = test: as above
Description: as §1

A498 [24] = test: as above
Description: as §1

Structure (SMILES): NC(=O)c1ccc(-c2nc(-c3ccc4c(c3)OCO4)c(-c3ccccn3)[nH]2)cc1
- GI50, drug alone (SN12C [1]): > 10 µM
- GI50, drug alone (769-P [2]): > 10 µM
- GI50, drug alone (TK-10 [3]): > 10 µM
- GI50, drug alone (ACHN [4]): > 10 µM
- GI50, drug alone (786-O [5]): > 10 µM
- GI50, drug alone (UO-31 [6]): > 10 µM
- GI50, drug alone (CAKI-1 [7]): > 10 µM
- GI50, drug alone (A498 [8]): > 10 µM
- minimum viability across doses (SN12C [9]): 0.556
- minimum viability across doses (769-P [10]): 0.838
- minimum viability across doses (TK-10 [11]): 0.613
- minimum viability across doses (ACHN [12]): 0.564
- minimum viability across doses (786-O [13]): 0.578
- minimum viability across doses (UO-31 [14]): 0.941
- minimum viability across doses (CAKI-1 [15]): 0.723
- minimum viability across doses (A498 [16]): 0.906
- AUC of dose-response viability curve (SN12C [17]): 2.86
- AUC of dose-response viability curve (769-P [18]): 3.26
- AUC of dose-response viability curve (TK-10 [19]): 2.89
- AUC of dose-response viability curve (ACHN [20]): 3.21
- AUC of dose-response viability curve (786-O [21]): 2.72
- AUC of dose-response viability curve (UO-31 [22]): 4.85
- AUC of dose-response viability curve (CAKI-1 [23]): 3.3
- AUC of dose-response viability curve (A498 [24]): 3.96

Structure (SMILES): Cn1cc(C2=C(c3ccc(Cl)cc3Cl)C(=O)NC2=O)c2ccccc21
- GI50, drug alone (SN12C [1]): > 10 µM
- GI50, drug alone (769-P [2]): 8.53 µM
- GI50, drug alone (TK-10 [3]): > 10 µM
- GI50, drug alone (ACHN [4]): > 10 µM
- GI50, drug alone (786-O [5]): > 10 µM
- GI50, drug alone (UO-31 [6]): > 10 µM
- GI50, drug alone (CAKI-1 [7]): > 10 µM
- GI50, drug alone (A498 [8]): > 10 µM
- minimum viability across doses (SN12C [9]): 0.908
- minimum viability across doses (769-P [10]): 0.386
- minimum viability across doses (TK-10 [11]): 0.629
- minimum viability across doses (ACHN [12]): 0.821
- minimum viability across doses (786-O [13]): 0.814
- minimum viability across doses (UO-31 [14]): 0.801
- minimum viability across doses (CAKI-1 [15]): 0.839
- minimum viability across doses (A498 [16]): 0.907
- AUC of dose-response viability curve (SN12C [17]): 3.43
- AUC of dose-response viability curve (769-P [18]): 3.2
- AUC of dose-response viability curve (TK-10 [19]): 3.26
- AUC of dose-response viability curve (ACHN [20]): 3.26
- AUC of dose-response viability curve (786-O [21]): 3.26
- AUC of dose-response viability curve (UO-31 [22]): 3.98
- AUC of dose-response viability curve (CAKI-1 [23]): 0.987
- AUC of dose-response viability curve (A498 [24]): 3.79

Structure (SMILES): O=C1c2ccccc2-c2n[nH]c3cccc1c23
- GI50, drug alone (SN12C [1]): > 10 µM
- GI50, drug alone (769-P [2]): > 10 µM
- GI50, drug alone (TK-10 [3]): > 10 µM
- GI50, drug alone (ACHN [4]): 8.89 µM
- GI50, drug alone (786-O [5]): > 10 µM
- GI50, drug alone (UO-31 [6]): > 10 µM
- GI50, drug alone (CAKI-1 [7]): 6.06 µM
- GI50, drug alone (A498 [8]): > 10 µM
- minimum viability across doses (SN12C [9]): 0.822
- minimum viability across doses (769-P [10]): 0.799
- minimum viability across doses (TK-10 [11]): 0.562
- minimum viability across doses (ACHN [12]): 0.421
- minimum viability across doses (786-O [13]): 0.545
- minimum viability across doses (UO-31 [14]): 0.52
- minimum viability across doses (CAKI-1 [15]): 0.251
- minimum viability across doses (A498 [16]): 0.999
- AUC of dose-response viability curve (SN12C [17]): 3.37
- AUC of dose-response viability curve (769-P [18]): 3.24
- AUC of dose-response viability curve (TK-10 [19]): 3.07
- AUC of dose-response viability curve (ACHN [20]): 3.44
- AUC of dose-response viability curve (786-O [21]): 2.81
- AUC of dose-response viability curve (UO-31 [22]): 3.08
- AUC of dose-response viability curve (CAKI-1 [23]): 3.09
- AUC of dose-response viability curve (A498 [24]): 4.19

Continued, in another order:

- GI50, drug alone (ACHN [4]): 1.87 µM
- GI50, drug alone (786-O [5]): 1.11 µM
Structure (SMILES): Nc1ccc(C(=O)Nc2cccc(-c3nc(N4CCOCC4)c4oc5ncccc5c4n3)c2)cn1
- GI50, drug alone (SN12C [1]): 8.23 µM
- GI50, drug alone (769-P [2]): 3.14 µM
- GI50, drug alone (TK-10 [3]): 1.7 µM
- GI50, drug alone (UO-31 [6]): 8.08 µM
- GI50, drug alone (CAKI-1 [7]): 1.19 µM
- GI50, drug alone (A498 [8]): > 10 µM
- minimum viability across doses (SN12C [9]): 0.46
- minimum viability across doses (769-P [10]): 0.0884
- minimum viability across doses (TK-10 [11]): 0.11
- minimum viability across doses (ACHN [12]): 0.207
- minimum viability across doses (786-O [13]): 0.00412
- minimum viability across doses (UO-31 [14]): 0.0163
- minimum viability across doses (CAKI-1 [15]): 0.153
- minimum viability across doses (A498 [16]): 0.527
- AUC of dose-response viability curve (SN12C [17]): 3
- AUC of dose-response viability curve (769-P [18]): 3.04
- AUC of dose-response viability curve (TK-10 [19]): 2.64
- AUC of dose-response viability curve (ACHN [20]): 2.63
- AUC of dose-response viability curve (786-O [21]): 2.4
- AUC of dose-response viability curve (UO-31 [22]): 5.57
- AUC of dose-response viability curve (CAKI-1 [23]): 2.63
- AUC of dose-response viability curve (A498 [24]): 4.39

- GI50, drug alone (ACHN [4]): > 10 µM
- GI50, drug alone (786-O [5]): > 10 µM
Structure (SMILES): C[C@@H]1CCN(C(=O)CC#N)C[C@@H]1N(C)c1ncnc2[nH]ccc12
- GI50, drug alone (SN12C [1]): > 10 µM
- GI50, drug alone (769-P [2]): > 10 µM
- GI50, drug alone (TK-10 [3]): > 10 µM
- GI50, drug alone (UO-31 [6]): > 10 µM
- GI50, drug alone (CAKI-1 [7]): > 10 µM
- GI50, drug alone (A498 [8]): > 10 µM
- minimum viability across doses (SN12C [9]): 0.935
- minimum viability across doses (769-P [10]): 0.988
- minimum viability across doses (TK-10 [11]): 0.806
- minimum viability across doses (ACHN [12]): 0.893
- minimum viability across doses (786-O [13]): 0.804
- minimum viability across doses (UO-31 [14]): 0.876
- minimum viability across doses (CAKI-1 [15]): 0.98
- minimum viability across doses (A498 [16]): 0.909
- AUC of dose-response viability curve (SN12C [17]): 3.63
- AUC of dose-response viability curve (769-P [18]): 3.63
- AUC of dose-response viability curve (TK-10 [19]): 3.14
- AUC of dose-response viability curve (ACHN [20]): 3.3
- AUC of dose-response viability curve (786-O [21]): 3.54
- AUC of dose-response viability curve (UO-31 [22]): 4.6
- AUC of dose-response viability curve (CAKI-1 [23]): 3.66
- AUC of dose-response viability curve (A498 [24]): 3.8

— the supplement of paper PMC8149375
